Values quoted from earlier work in patent US11324828B2, “Hydrogel polymeric compositions and methods” (Incept, LLC, priority 2007, dated 2022).
Read-outs that look alike come from different tables or passages of the source.

Key:
[1] = not given; remark: listed apart in the source

Row | water solubility | SMILES | Solubility ([1]; in water) | further results
1 | about 86 mg/L | CCCCN1CCCCC1C(=O)Nc1c(C)cccc1C (stereo not drawn) [Bupivacaine] | – | –
2 | about 1113 mg/L | O=C(O)Cc1ccccc1Nc1c(Cl)cccc1Cl [Diclofenac Sodium] | – | –
3 | – | CCc1cccc2c3c([nH]c12)C(CC)(CC(=O)O)OCC3 (stereo not drawn) [Etodolac] | Insoluble in water | –
4 | – | CC(C(=O)[O][Ca][O]C(=O)C(C)c1cccc(Oc2ccccc2)c1)c1cccc(Oc2ccccc2)c1 (stereo not drawn) [Fenoprofen Calcium] | Slightly soluble in water | –
5 | – | Cc1ccc(Cl)c(Nc2ccccc2C(=O)[O-])c1Cl.[Na+] [Meclofenamate Sodium] | – | Solubility ([1]; @ pH 7.2): <50 μg/mL @ pH 7.2 50 mg/mL @ pH 9.0
6 | – | NC(=O)Cc1cccc(C(=O)c2ccccc2)c1N [Nepafenac] | – | Solubility ([1]; no pH or medium printed): <1 mg/ml (The drug is available as 0.1% suspension)
